Measured values taken from article PMC12249833, “Discovery and Characterization of Novel Non-Hydroxamate HDAC11 Inhibitors” (International Journal of Molecular Sciences, 2025).
Like-named read-outs stand apart in the source and are kept apart here. Blank lines part the entries; values can stand above or below the compound they belong to.

What was measured:
HDAC11 [1] = target: T1, HDAC11 (Homo sapiens, UniProt Q96DB2); test: HDAC11 fluorimetric enzyme activity assay (Boc-Lys(TFA)-AMC), dose-response; format: biochemical
T1 construct: His6 (N); SUMO (N); made in house; host or cells: E. coli BL21 (DE3)
T1 sequence (Q96DB2 1-347): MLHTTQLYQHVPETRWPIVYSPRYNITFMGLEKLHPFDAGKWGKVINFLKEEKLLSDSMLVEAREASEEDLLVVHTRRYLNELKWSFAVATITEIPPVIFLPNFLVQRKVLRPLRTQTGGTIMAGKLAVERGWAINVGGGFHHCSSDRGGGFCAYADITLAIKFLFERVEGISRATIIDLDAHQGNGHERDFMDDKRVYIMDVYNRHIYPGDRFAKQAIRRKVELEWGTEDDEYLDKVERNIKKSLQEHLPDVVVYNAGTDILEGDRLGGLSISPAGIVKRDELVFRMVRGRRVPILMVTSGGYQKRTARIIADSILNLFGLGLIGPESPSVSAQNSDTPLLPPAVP

HDAC11 [2] = target: T1, HDAC11; test: High-throughput screening, residual HDAC11 enzyme activity; format: biochemical; conditions: final compound concentration 10 µM
HDAC1 = HDAC1 (Homo sapiens, UniProt Q13547); test: Isoenzyme selectivity, HDAC1 dose-response; format: biochemical; conditions: means ± standard deviation (n = 3)
HDAC1, sequence (Q13547 whole entry, species assumed): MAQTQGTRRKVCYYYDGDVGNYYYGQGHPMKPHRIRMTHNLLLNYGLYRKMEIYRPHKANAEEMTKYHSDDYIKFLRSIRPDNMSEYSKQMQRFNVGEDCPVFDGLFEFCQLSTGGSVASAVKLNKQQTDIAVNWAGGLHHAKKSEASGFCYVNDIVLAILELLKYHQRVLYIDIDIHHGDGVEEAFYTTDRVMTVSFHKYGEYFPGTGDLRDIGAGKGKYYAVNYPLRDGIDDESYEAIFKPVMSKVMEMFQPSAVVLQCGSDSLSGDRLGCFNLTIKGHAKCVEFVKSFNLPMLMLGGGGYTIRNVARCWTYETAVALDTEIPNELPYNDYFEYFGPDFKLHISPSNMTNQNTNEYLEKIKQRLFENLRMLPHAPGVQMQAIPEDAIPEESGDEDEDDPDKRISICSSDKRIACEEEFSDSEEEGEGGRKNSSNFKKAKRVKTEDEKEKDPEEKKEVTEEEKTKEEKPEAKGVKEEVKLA

HDAC4 = HDAC4 (Homo sapiens, UniProt P56524); test: Isoenzyme selectivity, HDAC4 dose-response; format: biochemical; conditions: means ± standard deviation (n = 3)
HDAC4, sequence (P56524 whole entry, species assumed): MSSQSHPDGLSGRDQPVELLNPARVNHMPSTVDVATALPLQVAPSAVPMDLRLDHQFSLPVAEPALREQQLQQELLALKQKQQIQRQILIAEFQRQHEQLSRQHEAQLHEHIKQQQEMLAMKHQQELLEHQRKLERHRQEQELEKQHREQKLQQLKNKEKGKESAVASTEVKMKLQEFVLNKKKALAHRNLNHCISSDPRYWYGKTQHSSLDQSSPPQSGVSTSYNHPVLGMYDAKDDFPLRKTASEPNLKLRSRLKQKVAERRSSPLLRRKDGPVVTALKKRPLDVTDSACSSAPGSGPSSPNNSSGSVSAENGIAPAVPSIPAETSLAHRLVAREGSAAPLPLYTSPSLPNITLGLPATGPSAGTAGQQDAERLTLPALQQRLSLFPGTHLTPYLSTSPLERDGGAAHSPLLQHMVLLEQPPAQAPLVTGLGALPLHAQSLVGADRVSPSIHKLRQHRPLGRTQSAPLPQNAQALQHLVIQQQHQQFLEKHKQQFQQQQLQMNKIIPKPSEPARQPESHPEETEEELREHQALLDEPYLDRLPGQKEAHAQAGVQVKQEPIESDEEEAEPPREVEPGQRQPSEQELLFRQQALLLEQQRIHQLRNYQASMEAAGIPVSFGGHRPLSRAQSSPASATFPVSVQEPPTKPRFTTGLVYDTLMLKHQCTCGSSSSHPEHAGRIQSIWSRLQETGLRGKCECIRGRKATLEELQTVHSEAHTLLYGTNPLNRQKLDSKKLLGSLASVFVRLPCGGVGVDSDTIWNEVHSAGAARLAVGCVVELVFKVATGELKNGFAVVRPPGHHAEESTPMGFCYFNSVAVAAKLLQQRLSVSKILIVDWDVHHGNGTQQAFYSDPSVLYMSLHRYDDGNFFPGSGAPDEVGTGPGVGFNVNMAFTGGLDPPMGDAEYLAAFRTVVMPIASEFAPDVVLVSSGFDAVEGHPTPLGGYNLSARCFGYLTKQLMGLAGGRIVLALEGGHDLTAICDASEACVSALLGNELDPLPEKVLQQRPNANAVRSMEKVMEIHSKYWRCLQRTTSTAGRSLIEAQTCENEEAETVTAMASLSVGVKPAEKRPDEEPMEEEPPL

HDAC6 = target: T2, HDAC6 (Homo sapiens, UniProt Q9UBN7); test: Isoenzyme selectivity, HDAC6 dose-response; format: biochemical; conditions: means ± standard deviation (n = 3)
T2 sequence (Q9UBN7 1-1215): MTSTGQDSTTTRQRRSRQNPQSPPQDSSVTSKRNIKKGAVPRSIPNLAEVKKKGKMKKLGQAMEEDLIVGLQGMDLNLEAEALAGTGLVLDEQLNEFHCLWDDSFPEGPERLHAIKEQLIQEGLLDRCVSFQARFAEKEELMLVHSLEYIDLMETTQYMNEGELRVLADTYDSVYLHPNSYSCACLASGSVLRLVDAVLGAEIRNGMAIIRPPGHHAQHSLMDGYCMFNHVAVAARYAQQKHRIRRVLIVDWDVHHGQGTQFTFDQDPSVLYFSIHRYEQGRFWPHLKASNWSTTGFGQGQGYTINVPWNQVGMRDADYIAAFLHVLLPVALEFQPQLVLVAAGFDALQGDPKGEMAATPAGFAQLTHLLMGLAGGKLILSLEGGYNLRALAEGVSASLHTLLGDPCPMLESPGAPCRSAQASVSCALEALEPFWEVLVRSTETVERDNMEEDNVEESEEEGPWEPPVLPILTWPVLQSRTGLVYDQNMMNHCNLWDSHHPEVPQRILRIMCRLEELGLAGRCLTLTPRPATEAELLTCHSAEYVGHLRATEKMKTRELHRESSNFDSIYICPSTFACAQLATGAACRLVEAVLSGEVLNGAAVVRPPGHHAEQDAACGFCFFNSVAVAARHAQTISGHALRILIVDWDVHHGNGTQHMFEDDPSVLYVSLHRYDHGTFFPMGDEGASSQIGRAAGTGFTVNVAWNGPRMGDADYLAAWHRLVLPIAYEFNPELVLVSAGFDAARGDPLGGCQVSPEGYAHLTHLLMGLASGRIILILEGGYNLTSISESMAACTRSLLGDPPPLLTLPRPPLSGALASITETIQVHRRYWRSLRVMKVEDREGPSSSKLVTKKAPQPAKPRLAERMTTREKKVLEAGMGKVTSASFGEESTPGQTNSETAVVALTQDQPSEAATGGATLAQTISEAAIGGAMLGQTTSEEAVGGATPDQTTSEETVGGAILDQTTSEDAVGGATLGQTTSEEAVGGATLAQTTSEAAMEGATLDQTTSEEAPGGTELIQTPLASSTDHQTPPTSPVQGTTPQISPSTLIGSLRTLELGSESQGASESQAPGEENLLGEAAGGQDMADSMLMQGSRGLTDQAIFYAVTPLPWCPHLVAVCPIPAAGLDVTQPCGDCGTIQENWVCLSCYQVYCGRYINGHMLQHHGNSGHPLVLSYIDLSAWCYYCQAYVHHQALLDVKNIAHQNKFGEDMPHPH

HDAC8 = target: T3, HDAC8 (Homo sapiens, UniProt Q9BY41); test: Isoenzyme selectivity, HDAC8 dose-response; format: biochemical; conditions: means ± standard deviation (n = 3)
T3 sequence (Q9BY41 1-377): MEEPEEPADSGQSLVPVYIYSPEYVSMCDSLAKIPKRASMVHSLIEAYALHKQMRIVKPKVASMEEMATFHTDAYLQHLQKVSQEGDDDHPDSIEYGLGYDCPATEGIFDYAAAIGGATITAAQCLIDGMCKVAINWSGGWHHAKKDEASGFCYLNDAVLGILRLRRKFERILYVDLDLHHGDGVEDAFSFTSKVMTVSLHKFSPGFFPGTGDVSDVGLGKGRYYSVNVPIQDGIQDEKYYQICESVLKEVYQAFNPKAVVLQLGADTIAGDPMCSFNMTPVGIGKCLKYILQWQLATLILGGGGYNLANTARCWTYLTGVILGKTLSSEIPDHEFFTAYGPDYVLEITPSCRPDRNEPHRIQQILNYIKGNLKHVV

HDAC11 [3] = target: T1, HDAC11; conditions: Figure 1 / text; read-out: HDAC11 IC50 of known inhibitors; cited from earlier work
HDAC11 [4] = target: T1, HDAC11; set-up: method as in PMID 31264832; conditions: 50 µM; cited from earlier work
[5] = Cytotoxicity testing (XTT) against HEK293; format: cell-based; conditions: human, HEK293 cells, HEK293, 100 µM compound concentration, read-out: Cell viability
Protocol: (§1) Figure S10: Cytotoxicity testing of indicated compound against HEK293 cell. 5000 HEK293 cells were seeded in 96-Well plates. After 48h Inkubationszeit at 37°C and 5% CO2 in DMEM supplemented with 10% FBS and 1% Pen/Strep. A serial 1:2 dilution starting with 100 uM of compounds was added and incubated for a further 24h. XTT reagent was added and incubated for 4h. Afterwards the absorbance was measure at 450 nm and 600 nm. Data points are mean values ± standard error, n ≥ 6.
(§2) 9SPC045H03 in the enzyme activity assay is not due to compound-substrate interference. […]

HEK293 normal cells = test: Cytotoxicity testing (XTT) against HEK293; format: cell-based; conditions: HEK293, up to 100 uM, 24h
Protocol: as §1, §2

HDAC11 [6] = target: T1, HDAC11; test: Rapid dilution experiment (reversibility of binding); format: biochemical; conditions: 10× IC50, 100-fold rapid dilution, recovery of enzyme activity
Protocol: The inhibitors were evaluated for reversible inhibition in an enzyme activity assay. […] After equilibration for 1 h at 30 °C, this solution is diluted 100-fold directly into 80 μM of the substrate Boc-Lys(TFA)-AMC. After a further hour of incubation, the reaction was stopped as indicated in the enzyme activity assay section.

HDAC11 [7] = target: T1, HDAC11; test: Time-dependent IC50 / pre-incubation one-step enzyme assay; format: biochemical; conditions: pre-incubation for different times up to 60 min
[8] = means ± standard deviation (n = 3), read-out: IC50 against HDAC11

IC50 (HDAC11 [1]; [8]): 2 ± 0.2 µM
Structure (SMILES): Cc1ccc(-n2c(SCc3ccc(C(=O)NO)cc3)nc3ccccc3c2=O)cc1 [9HDA020B05]

IC50 (HDAC11 [1]; [8]): 1.9 ± 0.4 µM
IC50 (HDAC1): 2.3 ± 0.5 µM
IC50 (HDAC4): 0.9 ± 0.4 µM
IC50 (HDAC6): 0.9 ± 0.3 µM
IC50 (HDAC8): 6 ± 1 µM
Structure (SMILES): Cc1cccc2nc(SCc3ccc(C(=O)NO)cc3)n(-c3ccc(Cl)cc3)c(=O)c12 [9HDA020C09]

IC50 (HDAC11 [1]; [8]): 2 ± 0.3 µM
Structure (SMILES): O=C(NO)c1ccc(CSc2nc3ccccc3c(=O)n2-c2cccc(Cl)c2)cc1 [9HDA020B10]

IC50 (HDAC11 [1]; [8]): 1.6 ± 0.2 µM
Structure (SMILES): CCc1ccc(-n2c(SCc3ccc(C(=O)NO)cc3)nc3cccc(C)c3c2=O)cc1 [9HDA020B06]

IC50 (HDAC11 [1]; [8]): 1.6 ± 0.3 µM
Structure (SMILES): Cc1cccc(-n2c(SCc3ccc(C(=O)NO)cc3)nc3ccccc3c2=O)c1 [9HDA020B09]

IC50 (HDAC11 [1]; [8]): 2.1 ± 0.2 µM
Structure (SMILES): O=C(NO)c1ccc(CSc2nc3ccccc3c(=O)n2-c2ccccc2)cc1 [9HDA020B04]

IC50 (HDAC11 [1]; [8]): 1.5 ± 0.3 µM
Structure (SMILES): Cc1cccc2nc(SCc3ccc(C(=O)NO)cc3)n(-c3ccccc3F)c(=O)c12 [9HDA020C07]

IC50 (HDAC11 [1]; [8]): 2 ± 0.2 µM
Structure (SMILES): Cc1ccc(-n2c(SCc3ccc(C(=O)NO)cc3)nc3ccccc3c2=O)c(C)c1 [9HDA020B08]

IC50 (HDAC11 [1]; [8]): 3.5 ± 0.8 µM
Structure (SMILES): Cc1ccccc1-n1c(SCc2ccc(C(=O)NO)cc2)nc2cccc(C)c2c1=O [9HDA020C08]

IC50 (HDAC11 [1]; [8]): 1.1 ± 0.4 µM
IC50 (HDAC1): 1.4 ± 0.4 µM
IC50 (HDAC6): 0.2 ± 0.1 µM
Res. HDAC activity (residual HDAC11 activity) (HDAC11 [2]): 58%
Structure (SMILES): Cc1cccc2nc(SCc3ccc(C(=O)NO)cc3)n(-c3ccccc3)c(=O)c12 [9HDA020C06]

IC50 (HDAC11 [1]; [8]): 4.1 ± 0.5 µM
Structure (SMILES): O=C(NO)c1ccc(CSc2nc3ccccc3c(=O)n2-c2ccccc2F)cc1 [9HDA020B11]

IC50 (HDAC11 [1]; [8]): > 100 µM
Structure (SMILES): O=C(O)/C=C/c1ccc(O)c(O)c1 [9LOP003E09, caffeic acid]

More lines, now with the values behind:

Structure (SMILES): N#C/C(=C\c1ccc(O)c(O)c1)C(=O)NCc1ccccc1 [9LOP015E07, Tyrphostin AG 490]
IC50 (HDAC11 [1]): 14 ± 3 µM
Res. HDAC activity (residual HDAC11 activity) (HDAC11 [2]): 65%

Structure (SMILES): O=C(CCc1ccccc1)c1c(O)cc(O)cc1O [9SPC036F04]
IC50 (HDAC11 [1]; [8]): > 50 µM

Structure (SMILES): O=C1NC(=O)/C(=C/c2ccc(O)nc2)S1 [9HDA018E08]
IC50 (HDAC11 [1]; [8]): 19 ± 2 µM

Structure (SMILES): N#C/C(=C\c1ccc(O)c(O)c1)C(=O)NCCCc1ccccc1 [9LOP015D09, Tyrphostin AG 555]
IC50 (HDAC11 [1]; [8]): 4.3 ± 3 µM
Res. HDAC activity (residual HDAC11 activity) (HDAC11 [2]): 49%

Structure (SMILES): O=C(NO)c1ccc(CSc2nc3ccccc3c(=O)n2-c2ccc(Br)cc2)cc1 [9HDA020B07]
IC50 (HDAC11 [1]; [8]): 2.6 ± 0.4 µM

Structure (SMILES): CCCCCCCCCCCCCCCCNNC(=O)c1cccs1 [SIS17]
IC50 (HDAC11 [3]): 0.85 µM
Degree of myristoylation of the HDAC11 substrate SHMT2 in cells (HDAC11 [4]): significantly increased

Structure (SMILES): Oc1c(C(Nc2cccc(C(F)(F)F)c2)c2ccncc2)ccc2cccnc12 (centres unmarked) [9SPC045H03]
Selectivity for HDAC11 against HDAC8 (HDAC11 [1]; from IC50 values of Table 2): about 3 fold
Selectivity for HDAC11 with respect to HDACs 1, 4, and 6 (HDAC11 [1]; from IC50 values of Table 2): more than 30 fold
IC50 (HDAC11 [1]; [8]): 2.3 ± 0.5 µM
IC50 (HDAC1): > 70 µM
IC50 (HDAC4): > 70 µM
IC50 (HDAC6): 67 µM
IC50 (HDAC8): 13 ± 5 µM
viability at 24 h, 100 µM [5]: 50%
Cytotoxic effect (in words) (HEK293 normal cells): moderately toxic effect
Reversibility of binding to HDAC11 (HDAC11 [6]): reversible binding
Time-dependence of HDAC11 inhibition (HDAC11 [7]): no time-dependent inhibition

Structure (SMILES): O=C(/C=C/c1ccc(O)c(O)c1)OCCc1ccccc1 [CAPE, caffeic acid phenethyl ester]
IC50 (HDAC11 [1]; [8]): 1.5 µM
IC50 (HDAC1): 22 ± 5 µM
IC50 (HDAC4): 68 ± 30 µM
IC50 (HDAC6): > 70 µM
IC50 (HDAC8): 7 ± 2 µM
Res. HDAC activity (residual HDAC11 activity) (HDAC11 [2]): 46%
Cytotoxic effect (in words) (HEK293 normal cells): did not show cytotoxic effects
Reversibility of binding to HDAC11 (HDAC11 [6]): reversible binding
Time-dependence of HDAC11 inhibition (HDAC11 [7]): no time-dependent inhibition

Structure (SMILES): O=C(NO)c1ccc(CSc2nc3cc(Cl)ccc3c(=O)n2-c2ccccc2F)cc1 [9HDA020C04]
IC50 (HDAC11 [1]; [8]): 2 ± 0.5 µM

Structure (SMILES): O=C(C=Cc1ccc(N=Cc2ccc([N+](=O)[O-])cc2)cc1)OCCc1ccccc1 [9SPC056H05]
Res. HDAC activity (residual HDAC11 activity) (HDAC11 [2]): 97%
